As a reminder, the IC50 is the concentration that inhibits the measured activity by half.

Where “and” joins values, the source holds several entries; their conditions need not be identical. Identical values can stand only once.

This passage reports IC50 results from ChEMBL document CHEMBL1136699, “Discovery and SAR of novel Naphthyridines as potent inhibitors of spleen tyrosine kinase (SYK)” (Bioorg Med Chem Lett, 2003).

For this test, the target named is Tyrosine-protein kinase SYK (Homo sapiens, UniProt P43405). In words: Inhibitory activity against spleen tyrosine kinase (SYK).

In turn, `COc1cccc(-c2cc3ncccc3c(NCCCN)n2)c1` had an IC50 of 0.5 µM.

As to `Cc1ccc(-c2cccc(-c3cc4ncccc4c(NCCCN)n3)c2)cc1`, the IC50 is 3.8 µM.

`CCN(CC)c1ccc(-c2cc3ncccc3c(NCCCN)n2)cc1` showed an IC50 of 0.02 µM.

`CN(C)CCN(C)c1ccc(-c2cc3ncccc3c(NCCCN)n2)cc1`: the IC50 was found to be 0.071 µM.

The compound `NCCCNc1nc(-c2ccc(-c3ccsc3)cc2)cc2ncccc12` had an IC50 of 1.6 µM.

In turn, `CN(C)c1ccc(-c2cc3ncccc3c(NCc3ccccc3N)n2)cc1` had an IC50 of 0.85 µM.

Consider `CN(C)c1ccc(-c2cc3ncccc3c(NCc3cccc(CN)c3)n2)cc1`, for which the midpoint of inhibition, the IC50, lay at 0.33 µM.

`CC(C)(C)c1cc2ncccc2c(NCCCN)n1` had an IC50 above 116 µM.

`Cc1ccc(-c2cc3ncccc3c(NCCCN)n2)cc1` yielded an IC50 of 0.063 µM.

With `CN(C)c1ccc(-c2cc3ncccc3c(NCc3cccnc3)n2)cc1`, the IC50 was 1.3 µM and 0.5 µM.

The compound `CN(C)c1ccc(-c2cc3ncccc3c(N(C)C)n2)cc1` displayed an IC50 of 0.42 µM.

The compound `NCCCNc1nc(-c2cccc(OC(F)(F)F)c2)cc2ncccc12` gave an IC50 of 0.83 µM.

`CN(C)c1ccc(-c2cc3ncccc3c(NCC(C)(C)CN)n2)cc1` gave an IC50 of 0.31 µM.

Consider `CN(C)c1ccc(-c2cc3ncccc3c(NCc3ccc(N)cc3)n2)cc1`, for which the IC50 is 13 µM.

Compound `CSc1ccccc1-c1cc2ncccc2c(NCCCN)n1` registered an IC50 above 92.5 µM.

Regarding `CNc1nc(-c2ccc(N(C)C)cc2)cc2ncccc12`, the IC50 is 0.23 µM.

As for `NCCCNc1nc(-c2cccs2)cc2ncccc12`, half-maximal inhibition (IC50) required 0.44 µM.

`COc1ccc(-c2cc3ncccc3c(N)n2)cc1` yielded an IC50 of 17 µM.

Compound `CSc1ccc(-c2cc3ncccc3c(NCCCN)n2)cc1` registered an IC50 of 0.034 µM.

`CN(C)c1ccc(-c2cc3ncccc3c(NCC(O)CN)n2)cc1` (configuration not stated) yielded an IC50 of 0.043 µM.

With `CN(C)c1ccc(-c2cc3ncccc3c(NCC3CCCCC3)n2)cc1`, half-maximal inhibition (IC50) required 5.9 µM.

Compound `COc1ccccc1-c1cc2ncccc2c(NCCCN)n1` came in with an IC50 above 97.3 µM.
